Where no end group is shown, it is not given here.
Tests used:
S. mutans UA159 = assay: Killing kinetics (time-kill assay); format: cell-based, Streptococcus mutans; settings: peptide 25 μg/ml; for TC, time required to kill 3 log10 of recoverable CFU/ml: UA159
Description: The determination of killing kinetics for fusion and parental peptides was conducted essentially as described previously (Eckert et al. (2006) Antimicrob. Agents Chemother. 50: 1480-1488). Briefly, medium-diluted overnight UA159 cultures (0.5×10^6 to 1×10^6 CFU/ml) were challenged with peptide at a concentration of 25 μg/ml, and at the indicated time intervals (“0 min” indicates untreated samples), a 10-μL aliquot was removed and the surviving CFU were rescued by dilution (1:50) into growth medium and then spread on TH agar plates for quantitation. […] Kinetics were determined by recording the average number of surviving CFU/ml versus incubation time in the presence of peptide (all assays were independently repeated three to five times). For Table 8, time to bactericidal killing (TC) values were defined as the time required for the level of surviving CFU/ml from peptide-treated cultures to fall 3 log10 below the levels of recovered S. mutans CFU/ml from untreated samples.

[1] = tested on: clinical isolates of S. mutans; format: cell-based, Streptococcus mutans; settings: for MIC (fusion library peptides) / MIC: clinical isolates of
Description: (§1) S. mutans clinical isolates UA140 (32), UA159 (1), T8 (33), ATCC 25175, GS5 (Kuramitsu and Ingersoll (1977) Infect Immun., 17: 330-337), and all gram-positive strains listed below (see Table 9) were grown under anaerobic conditions in brain heart infusion or Todd-Hewitt (TH) broth (Difco) overnight at 37° C. prior to use (Eckert et al. (2006) Antimicrob. Agents Chemother. 50: 3651-3657). Veillonella atypica PK1910 was grown in Veillonella medium (Egland et al. (2004) Proc. Natl. Acad. Sci., USA, 101: 16917-16922). All strains were grown in an anaerobic atmosphere of 80% N2, 10% CO2, and 10% H2.
(§2) Antibacterial growth inhibition assays were performed using sterile 96-well plates in a final volume of 100 μl, TH or Veillonella medium as described previously (Qi et al. (2005) FEMS Microbial Lett. 251: 321-326). Briefly, bacterial cells were grown overnight to an optical density at 600 nm of 0.75 to 0.8 (corresponding to 1×10^8 CFU/ml) and then diluted to 1×10^5 CFU/ml in broth and aliquoted onto plates. An appropriate volume of peptide stock solution (5 to 20 mg/ml, in water or methanol, depending on solubility) was then added to the first column of the plate to give 500 μg/ml or 512 μg/ml, followed by serial 1:2 dilutions across the plate to give wells containing peptides ranging from 500 to 1.95 μg/ml or 512 to 2 μg/ml. Methanol alone was also added to control for the effects of the solvent. The plates were then incubated at 37° C. under anaerobic conditions for 16 to 20 h without shaking, and the MIC was determined as the concentration of peptide present in the last clear well after visual inspection. Up to 5% (vol/vol) methanol was found not to be antimicrobial (data not shown). MICs were determined in triplicate for all bacteria.

V. atypica PK1910 = format: cell-based, Veillonella atypica
Description: as §1, §2

S. mitis ATCC 903 = format: cell-based, Streptococcus mitis
Description: as §1, §2

S. gordonii Challis DL1 = format: cell-based, Streptococcus gordonii
Description: as §1, §2

L. casei ATCC 4646 = format: cell-based, Lactobacillus casei
Description: as §1, §2

S. sanguinis NY101 = format: cell-based, Streptococcus sanguinis
Description: as §1, §2

| Substance | TC, time required to kill 3 log10 of recoverable CFU/ml (S. mutans UA159) | MIC (fusion library peptides) [1] | MIC V. atypica PK1910 (V. atypica PK1910) | MIC S. mitis ATCC 903 (S. mitis ATCC 903) | MIC S. gordonii Challis DL1 (S. gordonii Challis DL1) | MIC L. casei ATCC 4646 (L. casei ATCC 4646) | MIC S. sanguinis NY101 (S. sanguinis NY101) | further results |
| --- | --- | --- | --- | --- | --- | --- | --- | --- |
| RWRWRWFASASARWRWRWF-NH2 [FRW-9, RWRWRWF-ASASA-RWRWRWF*] | 45 min | 16 µg/mL | – | – | – | – | – | – |
| RWRWRWFPSGSPRWRWRWF-NH2 [FRW-10, RWRWRWF-PSGSP-RWRWRWF*] | 270 min | 32 µg/mL | – | – | – | – | – | – |
| RWRWRWFRWRWRWF-NH2 [FRW-8, RWRWRWFRWRWRWF*] | 50 min | 16 µg/mL | – | – | – | – | – | – |
| KLLKGATFHFFHHFFHFFHHF [AA-3] | – | – | – | – | – | – | – | MIC pH 4.9 (S. mutans): 6.25 μM; MIC pH 7.4 (S. mutans): >125 μM |
| FKKFWKWFRRF-NH2 [Peptide B-33, FKKFWKWFRRF*] | – | – | 16 µg/mL | 32 µg/mL | 32 µg/mL | 32 µg/mL | 32 µg/mL | MIC [1]: 8 to 24 µg/mL |
| HHFFHHFHHFFHHF-NH2 [AA-1, HHFFHHFHHFFHHF*] | – | – | – | – | – | – | – | MIC pH 4.9 (S. mutans): 12.5 μM; MIC pH 7.4 (S. mutans): >125 μM |
| FHYFWHWFHRF [AA-6, FHYFWHWFHRF] | – | – | – | – | – | – | – | MIC pH 4.9 (S. mutans): >50 μM; MIC pH 7.4 (S. mutans): 125 μM |
| FHFFHHFFHFFHHFKLLK [AA-5, FHFFHHFFHFFHHFKLLK] | – | – | – | – | – | – | – | MIC pH 4.9 (S. mutans): 28.125 μM; MIC pH 7.4 (S. mutans): >125 μM |
| RWRWRWFGGGLKRFLKWFKRF-NH2 [FBRW-24, RWRWRWF-GGG-LKRFLKWFKRF*] | – | 8 µg/mL | 16 µg/mL | 64 µg/mL | 32 µg/mL | 8 µg/mL | 16 µg/mL | – |
| RRRWWWFGGGRRRWWWF-NH2 [FRW-5, RRRWWWF-GGG-RRRWWWF*] | 270 min | 16 µg/mL | – | – | – | – | – | – |
| LKRFLKWFKRF-NH2 [Peptide B-34, LKRFLKWFKRF*] | – | – | 32 µg/mL | 64 µg/mL | 32 µg/mL | 16 µg/mL | 16 µg/mL | MIC [1]: 8 to 24 µg/mL |
| RRRWWWFPSGSPRRRWWWF-NH2 [FRW-4, RRRWWWF-PSGSP-RRRWWWF*] | 420 min | 32 µg/mL | – | – | – | – | – | – |
| RWRRLLKKLHHLLHGGGFKKFWKWFRRF-NH2 [FBα-20, RWRRLLKKLHHLLH-GGG-FKKFWKWFRRF*] | – | 4 to 8 µg/mL | 8 µg/mL | 32 µg/mL | 16 µg/mL | 8 µg/mL | 16 µg/mL | – |
| RRRWWWFASASARRRWWWF-NH2 [FRW-3, RRRWWWF-ASASA-RRRWWWF*] | 480 min | 32 µg/mL | – | – | – | – | – | – |
| RWRRLLKKLHHLLH-NH2 [α-11, RWRRLLKKLHHLLH*] | – | – | 4 µg/mL | 32 µg/mL | 16 µg/mL | 16 µg/mL | 16 µg/mL | MIC [1]: 8 µg/mL |
| IKQLLHFFQRF-NH2 [Peptide B-38, IKQLLHFFQRF*] | – | – | 64 µg/mL | 64 µg/mL | 32 µg/mL | 32 µg/mL | 64 µg/mL | activity against S. mutans by MIC, in words [1]: active but to a lesser degree than B-33 or B-34; MIC [1]: 24 µg/mL |
| RWRRLLKKLHHLLHGGGIKQLLHFFQRF-NH2 [FBα-21, RWRRLLKKLHHLLH-GGG-IKQLLHFFQRF*] | – | 16 µg/mL | – | – | – | – | – | fewer CFU/ml recovered from fusion peptide-treated cultures than from parental peptide-treated samples (S. mutans UA159; after 30 min): more than 2 log10 |
| FKKFWKWFRRFGGGRWRWRWF-NH2 [FBRW-14, FKKFWKWFRRF-GGG-RWRWRWF*] | – | 4 to 16 µg/mL | 8 µg/mL | 64 µg/mL | 32 µg/mL | 8 µg/mL | 16 µg/mL | – |
| RWRWRWFGGGRWRWRWF-NH2 [FRW-11, RWRWRWF-GGG-RWRWRWF*] | 90 min | 16 µg/mL | – | – | – | – | – | – |
| RRRWWWF-NH2 [Peptide 2C-3, RRRWWWF*] | 220 min | – | 64 µg/mL | 32 µg/mL | 32 µg/mL | 16 µg/mL | 16 µg/mL | MIC [1]: 4 to 8 µg/mL |
| LYHFLHWFQRF [AA-7, LYHFLHWFQRF] | – | – | – | – | – | – | – | MIC pH 4.9 (S. mutans): >50 μM; MIC pH 7.4 (S. mutans): 125 μM |
| IKQLLHFFQRFGGGRWRWRWF-NH2 [FBRW-15, IKQLLHFFQRF-GGG-RWRWRWF*] | – | 4 to 16 µg/mL | 8 µg/mL | 64 µg/mL | 32 µg/mL | 16 µg/mL | 16 µg/mL | – |

— patent US8609608B2, “Antimicrobial peptides” (C3 Jian, Inc., priority 2007, dated 2013)
